In ChEMBL document CHEMBL4673323, “Novel molecular hybrids of indoline spiropyrans and α-lipoic acid as potential photopharmacological agents: Synthesis, structure, photochromic and biological properties” (Bioorg Med Chem Lett, 2021):
The source made the active and inactive calls. The calls are words filed in the database; no cut-off is given here.

Assays:
HeLa [1] = assay: Antioxidant activity in human HeLa cells assessed as increase in cellular thiol level at 500 uM measured after 24 hrs by Thiol-tracker violet molecular probe based assay relative to control; format: functional
[2] = Cytotoxicity against human HeLa cells assessed as effect on cell viability at 500 uM measured after 24 hrs (Rvb (2% DMSO) = 93.5 +/- 3.19 %); format: cell-based; details: read-out: Activity
[3] = Cytotoxicity against human HeLa cells assessed as decrease in cell viability at 500 uM measured after 24 hrs relative to 2% DMSO control; format: cell-based; details: read-out: INH
HeLa [4] = assay: Antioxidant activity in human HeLa cells assessed as increase in cellular thiol level at 500 uM measured after 24 hrs by Thiol-tracker violet molecular probe based assay; format: functional, cell-based
HeLa [5] = assay: Antioxidant activity in human HeLa cells assessed as decrease in nuclear ROS at 500 uM measured after 24 hrs by CellROX reagent based flow cytometry; format: functional, cell-based
HeLa [6] = assay: Antioxidant activity in human HeLa cells assessed as decrease in cytosolic ROS at 500 uM measured after 24 hrs by CellROX orange reagent based flow cytometry relative to control; format: functional
[7] = Cytotoxicity against human HeLa cells assessed as effect on cell viability at 2 mM measured after 24 hrs (Rvb (8% DMSO) = 79.08 +/- 10.78 %); format: cell-based; details: read-out: Activity
[8] = Photochromic activity assessed as photoinduced isomerization by measuring increase in intensity of the absorption at 568 to 574 nm by UV spectra
HeLa [9] = assay: Antioxidant activity in human HeLa cells assessed as decrease in mitochondrial ROS at 500 uM measured after 24 hrs by CellROX reagent based flow cytometry; format: functional, cell-based
HeLa [10] = assay: Antioxidant activity in human HeLa cells assessed as increase in cellular thiol level at 2 mM measured after 24 hrs by Thiol-tracker violet molecular probe based assay relative to control; format: functional
HeLa [11] = assay: Antioxidant activity in human HeLa cells assessed as decrease in mitochondrial ROS at 500 uM measured after 24 hrs by CellROX reagent based flow cytometry relative to control; format: functional
[12] = Cytotoxicity against human HeLa cells assessed as decrease in cell viability at 2 mM measured after 24 hrs relative to 8% DMSO control; format: cell-based; details: read-out: INH
HeLa [13] = assay: Antioxidant activity in human HeLa cells assessed as decrease in nuclear ROS at 500 uM measured after 24 hrs by CellROX reagent based flow cytometry relative to control; format: functional
HeLa [14] = assay: Cytotoxicity against human HeLa cells assessed as decrease in cell viability measured after 24 hrs; format: cell-based
[15] = Effect on biochemical parameters of gross oxidative status in human HeLa cells at 500 uM measured after 24 hrs relative to control; format: ADME, cell-based
HeLa [16] = assay: Antioxidant activity in human HeLa cells assessed as decrease in cytosolic ROS at 500 uM measured after 24 hrs by CellROX orange reagent based flow cytometry; format: functional, cell-based

Compound	Activity (HeLa [1]) [%]	viability at 24 h, 500 µM [2] [%]	cytotoxicity at 24 h, 500 µM [3] [%]	Activity (HeLa [4])	inhibition (HeLa [5])	inhibition at 500 µM (HeLa [6]) [%]	viability at 24 h, 2000 µM [7] [%]	Activity [8]	inhibition (HeLa [9])	Activity (HeLa [10]) [%]	inhibition at 500 µM (HeLa [11]) [%]	cytotoxicity at 24 h, 2000 µM [12] [%]	inhibition at 500 µM (HeLa [13]) [%]	IC50 (HeLa [14]) [µM]	Activity [15]	inhibition (HeLa [16])
COc1ccc2c(c1)C(C)(C)C1(C=Cc3c(ccc4ccc(OC(=O)CCCCC5CCSS5)cc34)O1)N2C (stereo unspecified)	30	89.3	8.3	Active	inactive	78	77.9	Active	inactive							
O=C(O)CCCCC1CCSS1 (stereo not drawn) [LIPOIC ACID, ALPHA]		94.7					51.8			90	31	32.7	31			
COc1ccc2c(c1)C(C)(C)C1(C=Cc3c(ccc4ccc(O)cc34)O1)N2C (stereo unspecified)		4.19	98.4				5					93.7		46.2		
CN1c2ccccc2C(C)(C)C12C=Cc1c(ccc3ccc(OC(=O)CCCCC4CCSS4)cc13)O2 (stereo unspecified)	35	95		Active			73.4	inactive							Non-Toxic	inactive
CN1c2ccccc2C(C)(C)C12C=Cc1c(ccc3ccc(O)cc13)O2 (stereo unspecified)		84.5	11.9				66.5	inactive								
